In patent US5041549A, “Heterocyclic spiro compounds and methods for preparing the same” (Yamanouchi Pharmaceutical Co., Ltd., priority 1987, dated 1991):
Read-outs that look alike come from different tables or passages of the source.

Assays:
tremor in mice = assay: Induction of tremor in mice; conditions: sc
[1] = biological target: M2-receptor of rat cerebellum (Rattus norvegicus, UniProt P10980); assay: biochemical; format: binding
[2] = biological target: T1, M1-receptor of rat cerebral cortex (Rattus norvegicus, UniProt P08482); assay: Affinity for muscarinic receptor: [3H]pirenzepine binding to M1-receptor of rat cerebral cortex
T1 construct: M1 -receptor of rat cerebral cortex; from tissue; host or cells: rat cerebral cortex (membranes of rat brain)
T1 sequence (P08482 1-460): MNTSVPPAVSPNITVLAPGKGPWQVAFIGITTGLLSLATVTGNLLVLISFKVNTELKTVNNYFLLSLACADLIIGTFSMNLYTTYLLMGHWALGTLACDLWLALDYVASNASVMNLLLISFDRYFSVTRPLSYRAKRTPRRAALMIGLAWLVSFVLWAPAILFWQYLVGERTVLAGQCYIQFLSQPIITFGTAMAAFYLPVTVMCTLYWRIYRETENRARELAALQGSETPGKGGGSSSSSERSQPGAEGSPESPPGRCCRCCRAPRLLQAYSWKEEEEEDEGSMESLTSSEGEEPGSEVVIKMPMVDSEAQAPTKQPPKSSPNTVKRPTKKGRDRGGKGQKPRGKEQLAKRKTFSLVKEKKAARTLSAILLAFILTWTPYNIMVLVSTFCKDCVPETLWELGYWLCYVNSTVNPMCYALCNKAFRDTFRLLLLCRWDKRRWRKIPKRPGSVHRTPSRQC

Chain of M2-receptor of rat cerebellum (P10980 whole entry): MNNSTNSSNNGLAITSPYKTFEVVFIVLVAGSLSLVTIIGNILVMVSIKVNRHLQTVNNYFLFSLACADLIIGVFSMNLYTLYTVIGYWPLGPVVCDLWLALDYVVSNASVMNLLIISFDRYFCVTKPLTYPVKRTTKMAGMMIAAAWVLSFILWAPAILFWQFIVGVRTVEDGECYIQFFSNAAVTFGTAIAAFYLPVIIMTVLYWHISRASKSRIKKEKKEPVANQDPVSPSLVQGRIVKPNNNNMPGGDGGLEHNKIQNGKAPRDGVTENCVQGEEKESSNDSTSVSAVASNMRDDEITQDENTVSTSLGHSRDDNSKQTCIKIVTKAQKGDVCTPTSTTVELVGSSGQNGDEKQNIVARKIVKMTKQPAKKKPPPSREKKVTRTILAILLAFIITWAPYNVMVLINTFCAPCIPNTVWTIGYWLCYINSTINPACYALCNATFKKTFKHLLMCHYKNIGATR

Row | Structure (SMILES) | Dose, the effect of the above 2) (minimum effective dose for causing tremor) (tremor in mice) | IC50 [1] | IC50 ([2]; [3H]pirenzepine, M1-receptor, rat cerebral cortex, read-out: Receptor-affinity IC50, Pirenzepine binding) | IC50 [2]
1 | C=C1CC2(CCN(C)CC2)OC1CC (centres unmarked) [Example 36, 2-Ethyl-8-methyl-3-methylene-1-oxa-8-azaspiro[4.5]decane] | > 30 mg/kg | 8960 nM | 1260 nM | 
2 | CC1OC2(CN3CCC2CC3)CC12SCCS2 (single isomer, unassigned) [Example 33, 5'-Methyl-dispiro[1-azabicyclo[2.2.2]octane-3,2'-oxolane-4',2"-[1.3]dithiolane]] | > 30 mg/kg | 310 nM |  | 17 nM
3 | CCC1OC2(CCN(C)CC2)CC12OCCS2 (centres unmarked) [Example 29, 14-ethyl-10-methyl-1,13-dioxa-4-thia-10-azadispiro[4.1.5.2]tetradecane] | > 30 mg/kg | 640 nM |  | 49 nM
4 | CC1SC2(CCN(C)CC2)CC12SCCS2 (centres unmarked) [Example 22, 10,14-Dimethyl-1,4,13-trithia-10-azadispiro[4.1.5.2]tetradecane] | > 30 mg/kg | 710 nM |  | 39 nM
5 | CCC1OC2(CCN(C)CC2)CC1=O (centres unmarked) [Example 15, 2-ethyl-8-methyl-1-oxa-8-azaspiro[4.5]decan-3-one] | > 30 mg/kg |  |  | 
6 | COC(=O)C1=CCCN(C)C1 [Arecoline, reference compound] | 5 mg/kg |  |  | 
7 | C=C1CC2(CCN(C)CC2)OC1C (centres unmarked) [Example 5, 2,8-dimethyl-3-methylene-1-oxa-8-azaspiro[4,5]decane] | > 30 mg/kg | 25100 nM |  | 3320 nM
8 | O=C1CCCN1CC#CCN1CCCC1 [Oxotremorine, reference compound] | 0.2 mg/kg | 4.9 nM |  | 68 nM
